The values that follow are results of earlier work, collected in article PMC10485003, “Antibiotic hyper-resistance in a class I aminoacyl-tRNA synthetase with altered active site signature motif” (Nature Communications, 2023).

This series has as its system IleRS. More on the design: method as in PMID 18234501. The following applies: monic acid A alone, without the nonanoic acid part; cited from earlier work.

Structures are written as SMILES.

Consider `CC(=CC(=O)O)CC1OCC(CC2OC2C(C)C(C)O)C(O)C1O` (stereo not shown) [monic acid A], for which the inhibitor activity result is given as “cannot act as an inhibitor”.
